Test results reported in PubChem BioAssay (NCI).
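Five concentrations, 48 hours, 96-well plates. At the GI50, growth is halved. At the TGI there is no net growth.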

Columns and labels:
Experiment in all cases: growth of human tumour cells (NCI), 48 h
MOLT-4 leukemia = system: MOLT-4 leukemia
IGROV1 ovarian = system: IGROV1 ovarian
RPMI-8226 leukemia = system: RPMI-8226 leukemia
NCI-H23 lung = system: NCI-H23 lung
OVCAR-8 ovarian = system: OVCAR-8 ovarian
786-0 renal = system: 786-0 renal
PC-3 prostate = system: PC-3 prostate
SF-268 CNS = system: SF-268 CNS
SK-MEL-2 melanoma = system: SK-MEL-2 melanoma
COLO 205 colon = system: COLO 205 colon

| SMILES | TGI (MOLT-4 leukemia) | TGI (IGROV1 ovarian) | TGI (RPMI-8226 leukemia) | TGI (NCI-H23 lung) | TGI (OVCAR-8 ovarian) | TGI (786-0 renal) | TGI (PC-3 prostate) | TGI (SF-268 CNS) | TGI (SK-MEL-2 melanoma) | TGI (COLO 205 colon) | GI50 (MOLT-4 leukemia) | GI50 (IGROV1 ovarian) | GI50 (RPMI-8226 leukemia) | GI50 (NCI-H23 lung) | GI50 (OVCAR-8 ovarian) | GI50 (786-0 renal) | GI50 (PC-3 prostate) | GI50 (SF-268 CNS) | GI50 (SK-MEL-2 melanoma) | GI50 (COLO 205 colon) |
| --- | --- | --- | --- | --- | --- | --- | --- | --- | --- | --- | --- | --- | --- | --- | --- | --- | --- | --- | --- | --- |
| CC(=O)OCC1C(=O)OCC1C(=O)N1Cc2cc3ccccc3nc2C1 (stereo not given) | 4.25 µM | 24 µM | 4.6 µM | 14.5 µM | 11.5 µM | 3.84 µM | 20.1 µM | 22.6 µM | 22.9 µM | 2.04 µM |  |  |  |  |  |  |  |  |  |  |
| COc1ccc2c(c1)[C@@H](NC(C)=O)CCc1cc(OC)c(OC)c(OC)c1-2 | > 42.5 µM | > 100 µM | > 100 µM | 2.88 µM | 1.27 µM | > 100 µM | > 4.75 µM | > 90.4 µM | > 21.5 µM | 0.02 µM |  |  |  |  |  |  |  |  |  |  |
| O=C(CCCc1ccc(N(CCCl)CCCl)cc1)NCc1ccccc1 | 11.6 µM | 43.9 µM | 27.4 µM | 33.1 µM | > 100 µM | 23.3 µM | 73.9 µM | 57.8 µM | 55 µM | 33 µM | 2.89 µM | 13.8 µM | 4.57 µM | 4.77 µM | 8.11 µM | 3.32 µM | 12.1 µM | 5.69 µM | 21.8 µM | 13.5 µM |
| CC(C)=CCc1cc2c(cc1O)C1=C(C(=O)C3=C(NCCS3(=O)=O)C1=O)C(C=C(C)C)O2 (stereo not given) | 12.2 µM | 15 µM | > 16.7 µM | > 16.7 µM | > 16.7 µM | > 16.7 µM | > 16.7 µM | > 16.7 µM | 15 µM | > 16.7 µM | 3.16 µM | 3.69 µM | 5.56 µM | 5.8 µM | 4.75 µM | 9.97 µM | 5.58 µM | 4.13 µM | 4.34 µM | 5.53 µM |
| Sc1cccc2cccnc12 | 19.7 µM | 12.6 µM | 30.3 µM | 16.8 µM | 15.3 µM | 14.3 µM | 13.1 µM | 13.5 µM | 15.3 µM | 9.38 µM | 0.55 µM | 0.541 µM | 2.9 µM | 1.91 µM | 0.537 µM | 1.22 µM | 0.577 µM | 1.35 µM | 2.58 µM | 2.32 µM |
| COC(=O)[C@@H](C)C[C@H](Cc1ccccc1)NC(=O)c1nc([C@@H](C[C@H](C(C)C)N(C)C(=O)[C@@H](NC(=O)[C@H]2C[C@H](O)CCN2C)C(C)C)OC(C)=O)sc1C(C)C | > 11.1 µM | > 11.1 µM | > 9.92 µM | > 11.1 µM | > 11.1 µM | 4.65 µM | > 11.1 µM | > 11.1 µM | > 11.1 µM | 0.104 µM | 0.0117 µM | 0.00324 µM | 0.00173 µM | 0.0232 µM | 0.0193 µM | 0.0337 µM | 0.00391 µM | 0.00957 µM | 0.00318 µM | 0.00692 µM |
| O=C1NC(=O)C(c2c[nH]c3ccccc23)=C1c1c[nH]c2ccccc12 | > 25 µM | > 25 µM | > 25 µM | > 25 µM | > 25 µM | > 25 µM | > 25 µM | > 25 µM | > 25 µM | > 25 µM | 9.55 µM | > 20.9 µM | 9.48 µM | 14.7 µM | 15.8 µM | > 19.1 µM | 10.2 µM | 16.3 µM | 12 µM | 9.18 µM |
| CC(C)=CC[C@@H]1CC2(CC=C(C)C)C(=O)C(OC3(C(=O)c4ccccc4)C(=O)C4(CC=C(C)C)C[C@@H](CC=C(C)C)C(C)(C)C(CC=C(C)C)(C4=O)C3=O)(C(=O)c3ccccc3)C(=O)C(CC=C(C)C)(C2=O)C1(C)C (stereo not given in full) | 4.51 µM | 7 µM | 2.7 µM | 4.48 µM | 6.05 µM | 2.61 µM | 4.36 µM | 2.89 µM | 3.04 µM | 3.22 µM | 1.3 µM | 1.63 µM | 1.05 µM | 1.36 µM | 1.7 µM | 0.963 µM | 1.28 µM | 1.13 µM | 1.01 µM | 1.2 µM |
| O=C(NCc1cn(Cc2cccc(Oc3ccccc3)c2)nn1)c1cccnc1Nc1ccc(F)cc1 | > 100 µM | > 100 µM | > 100 µM | > 100 µM | > 100 µM | > 100 µM | > 100 µM | > 100 µM | > 100 µM | > 100 µM | > 100 µM | 30.7 µM | > 100 µM | 52.1 µM | 7.44 µM | 23.2 µM | 20.4 µM | 21 µM | 34.2 µM | 6.22 µM |
| Cn1ncnc1[C@@H]1c2n[nH]c(=O)c3cc(F)cc(c23)N[C@H]1c1ccc(F)cc1 | > 100 µM | > 100 µM | > 100 µM | > 100 µM | > 100 µM | > 100 µM | > 100 µM | > 100 µM | > 100 µM | > 100 µM | > 100 µM | > 100 µM | > 100 µM | > 100 µM | > 100 µM | > 100 µM | > 100 µM | > 100 µM | > 100 µM | > 100 µM |
| COC(=O)N[C@H]1CCc2cc(OC)c(OC)c(OC)c2-c2ccc(SC)c(=O)cc21 | > 70.5 µM | > 100 µM | > 64.5 µM | > 100 µM | > 100 µM | > 100 µM | > 100 µM | > 100 µM | > 100 µM |  | < 0.01 µM | < 0.01 µM | < 0.01 µM | < 0.01 µM | < 0.01 µM | < 0.01 µM | < 0.01 µM | < 0.01 µM | 1.76 µM | < 0.01 µM |
| O=C(O)/C=C/c1ccc(O)c(O)c1 | > 100 µM | > 100 µM | > 100 µM | > 100 µM | > 100 µM | > 100 µM | > 100 µM | > 100 µM | > 100 µM | > 100 µM |  |  |  |  |  |  |  |  |  |  |
| C/C(=C\C(=O)O[C@H]1[C@@H]2[C@H](C)CC[C@H]2[C@]2(C)O[C@@]1(C1CCCCC1)C[C@H]2OC(=O)CO)c1ccccc1 | 13.6 µM | 14.7 µM | 16.6 µM | 13.9 µM | 10.7 µM | 10.6 µM | 10.9 µM | 8.47 µM | 13.4 µM | 15 µM | 6.42 µM | 7.58 µM | 7.2 µM | 6.87 µM | 4.27 µM | 5.11 µM | 5.05 µM | 0.2 µM | 7.05 µM | 7.61 µM |
| COc1ccc(C2=NN(C(N)=S)C(c3ccc4c(c3)OCO4)C2)cc1 (stereo not given) | 34.5 µM | 6.8 µM | 6.33 µM | 23.3 µM | 22.9 µM | > 100 µM | > 100 µM | 8.02 µM | 38.9 µM | 11.5 µM | 3.02 µM | 2.42 µM | 1.88 µM | 3.71 µM | 3.29 µM | 3.8 µM | 4.33 µM | 2.79 µM | 3.12 µM | 3.39 µM |
| O=c1nc2n(-c3cccc(Cl)c3)c3ccc([N+](=O)[O-])cc3cc-2c(=O)[nH]1 | > 25 µM | > 25 µM | 10.8 µM | 10.6 µM | > 25 µM | 9.5 µM | 15.3 µM | 13.3 µM | > 25 µM | > 25 µM | 2.02 µM | 17.4 µM | 3.13 µM | 4.94 µM | 17 µM | 4.49 µM | 6.01 µM | 3.56 µM | > 25 µM | 7.94 µM |
| Cc1c2cnccc2c(C)c2c1c1ccccc1n2CCOC(=O)c1ccccc1 | 25.4 µM | 42.7 µM | 42 µM | 54.7 µM | 26.9 µM | 28.6 µM | > 100 µM | 79.5 µM | 31.8 µM | 47 µM |  |  |  |  |  |  |  |  |  |  |
| Cn1cc(-c2ccc3nc(-c4ccc(CC(=O)Nc5cc(C(C)(C)C)no5)cc4)cnc3c2)cn1 | > 3 µM | > 1.21 µM | > 3 µM | > 3 µM | > 3 µM | > 3 µM | > 3 µM | > 3 µM | 0.581 µM | > 3 µM | 0.102 µM | 0.013 µM | 0.056 µM | 0.895 µM | 0.0548 µM | 0.0375 µM | 0.112 µM | 0.0399 µM | 0.0237 µM |  |
| CN(C)CCNC(=O)c1cc2c3cc(Cl)ccc3[nH]c2c2ncccc12 | 4.27 µM | 4.34 µM | 3.84 µM | 23.4 µM | 12.7 µM | 18.1 µM | 14.8 µM | 11.8 µM | 20.1 µM | 10.5 µM | 1.54 µM | 1.52 µM | 1.78 µM | 6.31 µM | 2.57 µM | 4.83 µM | 3.62 µM | 2.81 µM | 4.2 µM | 1.97 µM |
| COc1ccc(-c2csc3c2-n2cccc2C3=O)cc1 | > 87.7 µM | > 88.5 µM |  | > 100 µM | > 100 µM | > 100 µM | > 52.1 µM | > 100 µM | > 79.9 µM | 5.78 µM | 0.0352 µM | 0.0229 µM | 0.0259 µM |  | 0.068 µM | 0.0497 µM | 0.0317 µM | 0.0434 µM | 0.0111 µM |  |
